Assay results as given in PubChem BioAssay (NCI).
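These data come from cells grown in 96-well plates and exposed to compound for 48 hours at five concentrations. TGI denotes the concentration required for complete inhibition of growth.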

Legend:
Assay in all cases: inhibition of tumour cell growth, NCI panel, 48 h
SK-OV-3 ovarian = tested on: SK-OV-3 ovarian
OVCAR-3 ovarian = tested on: OVCAR-3 ovarian
SN12C renal = tested on: SN12C renal
DMS 273 small cell lung = tested on: DMS 273 small cell lung
KM12 colon = tested on: KM12 colon
CAKI-1 renal = tested on: CAKI-1 renal
U251 CNS = tested on: U251 CNS
MOLT-4 leukemia = tested on: MOLT-4 leukemia
HCC-2998 colon = tested on: HCC-2998 colon
EKVX NSCLC = tested on: EKVX NSCLC
HL-60(TB) leukemia = tested on: HL-60(TB) leukemia
SF-539 CNS = tested on: SF-539 CNS
NCI-H460 lung = tested on: NCI-H460 lung
OVCAR-5 ovarian = tested on: OVCAR-5 ovarian
CCRF-CEM leukemia = tested on: CCRF-CEM leukemia
SW-620 colon = tested on: SW-620 colon
HCT-15 colon = tested on: HCT-15 colon
A549 NSCLC = tested on: A549 NSCLC
SR leukemia = tested on: SR leukemia
KM20L2 colon = tested on: KM20L2 colon
HOP-62 NSCLC = tested on: HOP-62 NSCLC
HCT-116 colon = tested on: HCT-116 colon
NCI-H522 lung = tested on: NCI-H522 lung
SF-295 CNS = tested on: SF-295 CNS
XF 498 CNS = tested on: XF 498 CNS
DMS 114 small cell lung = tested on: DMS 114 small cell lung
MALME-3M melanoma = tested on: MALME-3M melanoma
RPMI-8226 leukemia = tested on: RPMI-8226 leukemia
NCI-H23 lung = tested on: NCI-H23 lung
NCI-H226 lung = tested on: NCI-H226 lung
TK-10 renal = tested on: TK-10 renal
HT29 colon = tested on: HT29 colon
SF-268 CNS = tested on: SF-268 CNS
SNB-78 CNS = tested on: SNB-78 CNS
OVCAR-8 ovarian = tested on: OVCAR-8 ovarian
SK-MEL-28 melanoma = tested on: SK-MEL-28 melanoma
UO-31 renal = tested on: UO-31 renal
SK-MEL-2 melanoma = tested on: SK-MEL-2 melanoma
786-0 renal = tested on: 786-0 renal
LOX IMVI melanoma = tested on: LOX IMVI melanoma
M19-MEL melanoma = tested on: M19-MEL melanoma
K-562 leukemia = tested on: K-562 leukemia
UACC-257 melanoma = tested on: UACC-257 melanoma
COLO 205 colon = tested on: COLO 205 colon
SNB-19 CNS = tested on: SNB-19 CNS
M14 melanoma = tested on: M14 melanoma
ACHN renal = tested on: ACHN renal
LXFL 529 NSCLC = tested on: LXFL 529 NSCLC
SNB-75 CNS = tested on: SNB-75 CNS
HOP-92 NSCLC = tested on: HOP-92 NSCLC
RXF 393 renal = tested on: RXF 393 renal
DLD-1 colon = tested on: DLD-1 colon
IGROV1 ovarian = tested on: IGROV1 ovarian
OVCAR-4 ovarian = tested on: OVCAR-4 ovarian
SK-MEL-5 melanoma = tested on: SK-MEL-5 melanoma
UACC-62 melanoma = tested on: UACC-62 melanoma
DU-145 prostate = tested on: DU-145 prostate
MDA-MB-435 = tested on: MDA-MB-435
HS 578T breast = tested on: HS 578T breast
A498 renal = tested on: A498 renal
NCI/ADR-RES ovarian = tested on: NCI/ADR-RES ovarian
BT-549 breast = tested on: BT-549 breast
PC-3 prostate = tested on: PC-3 prostate
T-47D breast = tested on: T-47D breast
MDA-MB-231 breast = tested on: MDA-MB-231 breast
MCF7 breast = tested on: MCF7 breast
MDA-N = tested on: MDA-N

Measured: TGI

COCC(O)Cn1ccnc1[N+](=O)[O-] (stereo not drawn)
> 100 µM: SK-OV-3 ovarian | OVCAR-3 ovarian | SN12C renal | DMS 273 small cell lung | KM12 colon | CAKI-1 renal | U251 CNS | MOLT-4 leukemia | HCC-2998 colon | EKVX NSCLC | HL-60(TB) leukemia | SF-539 CNS | NCI-H460 lung | OVCAR-5 ovarian | CCRF-CEM leukemia | SW-620 colon | HCT-15 colon | A549 NSCLC | SR leukemia | KM20L2 colon | HOP-62 NSCLC | HCT-116 colon | NCI-H522 lung | SF-295 CNS | XF 498 CNS | DMS 114 small cell lung | MALME-3M melanoma | RPMI-8226 leukemia | NCI-H23 lung | NCI-H226 lung | TK-10 renal | HT29 colon | SF-268 CNS | SNB-78 CNS | OVCAR-8 ovarian | SK-MEL-28 melanoma | UO-31 renal | SK-MEL-2 melanoma | 786-0 renal | LOX IMVI melanoma | M19-MEL melanoma | K-562 leukemia | UACC-257 melanoma | COLO 205 colon | SNB-19 CNS | M14 melanoma | ACHN renal

CCSc1nc2cccc([N+](=O)[O-])c2n1CC
> 100 µM: SK-OV-3 ovarian | OVCAR-3 ovarian | DMS 273 small cell lung | KM12 colon | CAKI-1 renal | U251 CNS | MOLT-4 leukemia | LXFL 529 NSCLC | SNB-75 CNS | HCC-2998 colon | EKVX NSCLC | HOP-92 NSCLC | HL-60(TB) leukemia | SF-539 CNS | NCI-H460 lung | CCRF-CEM leukemia | SW-620 colon | RXF 393 renal | A549 NSCLC | NCI-H522 lung | DMS 114 small cell lung | DLD-1 colon | RPMI-8226 leukemia | IGROV1 ovarian | NCI-H23 lung | NCI-H226 lung | OVCAR-4 ovarian | TK-10 renal | HT29 colon | SNB-78 CNS | OVCAR-8 ovarian | SK-MEL-5 melanoma | SK-MEL-28 melanoma | LOX IMVI melanoma | K-562 leukemia | UACC-257 melanoma | UACC-62 melanoma | COLO 205 colon | SNB-19 CNS | M14 melanoma

O=C(CCc1ccc(O)c(O)c1)NCCc1cc(O)cc(O)c1
66.6 µM: MDA-MB-435
> 100 µM: SK-OV-3 ovarian | OVCAR-3 ovarian | DU-145 prostate | SN12C renal | KM12 colon | CAKI-1 renal | U251 CNS | HS 578T breast | MOLT-4 leukemia | SNB-75 CNS | HCC-2998 colon | EKVX NSCLC | HOP-92 NSCLC | HL-60(TB) leukemia | SF-539 CNS | NCI-H460 lung | A498 renal | OVCAR-5 ovarian | CCRF-CEM leukemia | SW-620 colon | RXF 393 renal | HCT-15 colon | A549 NSCLC | SR leukemia | NCI/ADR-RES ovarian | HOP-62 NSCLC | HCT-116 colon | NCI-H522 lung | SF-295 CNS | RPMI-8226 leukemia | IGROV1 ovarian | NCI-H23 lung | BT-549 breast | NCI-H226 lung | TK-10 renal | PC-3 prostate | T-47D breast | HT29 colon | SF-268 CNS | MDA-MB-231 breast | OVCAR-8 ovarian | SK-MEL-5 melanoma | SK-MEL-28 melanoma | UO-31 renal | SK-MEL-2 melanoma | 786-0 renal | LOX IMVI melanoma | MCF7 breast | UACC-257 melanoma | UACC-62 melanoma | COLO 205 colon | SNB-19 CNS | M14 melanoma | ACHN renal
79.4 µM: K-562 leukemia
48.1 µM: MDA-N

COc1cccc2c1Cc1cc(-c3ccccc3)[n+](C)n1-2
79.9 µM: ACHN renal
44.9 µM: HL-60(TB) leukemia
25.5 µM: MDA-MB-435
84.2 µM: 786-0 renal
26 µM: MDA-N
81.7 µM: MDA-MB-231 breast
99.5 µM: BT-549 breast
14.4 µM: UACC-257 melanoma
47.7 µM: NCI-H226 lung
9.69 µM: CCRF-CEM leukemia
30.3 µM: UACC-62 melanoma
32 µM: HT29 colon
17.7 µM: T-47D breast
32.4 µM: NCI-H23 lung
66.4 µM: HOP-92 NSCLC
25.6 µM: MALME-3M melanoma
40.4 µM: NCI-H460 lung
21.7 µM: SK-MEL-5 melanoma
5.53 µM: MCF7 breast
90.8 µM: UO-31 renal
61.7 µM: SN12C renal
14.5 µM: OVCAR-4 ovarian
29.3 µM: LOX IMVI melanoma
73.6 µM: RXF 393 renal
> 100 µM: SK-OV-3 ovarian | OVCAR-3 ovarian | DU-145 prostate | CAKI-1 renal | U251 CNS | HS 578T breast | MOLT-4 leukemia | HCC-2998 colon | A498 renal | OVCAR-5 ovarian | SW-620 colon | HCT-15 colon | A549 NSCLC | SR leukemia | NCI/ADR-RES ovarian | HOP-62 NSCLC | NCI-H522 lung | SF-295 CNS | RPMI-8226 leukemia | IGROV1 ovarian | TK-10 renal | SF-268 CNS | OVCAR-8 ovarian | SK-MEL-28 melanoma | K-562 leukemia | SNB-19 CNS
8.22 µM: EKVX NSCLC
34.3 µM: KM12 colon
44.1 µM: SF-539 CNS
89.7 µM: PC-3 prostate
7.46 µM: COLO 205 colon
15.8 µM: HCT-116 colon
50 µM: SK-MEL-2 melanoma
58.6 µM: SNB-75 CNS
24.9 µM: M14 melanoma
